Where two headings read alike, the source gives them in different places.

Data on two compounds can be found in patent publication US20200079757A1, “COMPOUNDS FOR THE TREATMENT OF RESPIRATORY DISEASES” (THE UNIVERSITY OF MELBOURNE, priority 2017, published 2020).

The subject of assay [1] is TGFβ-activated A549. The assay can be described thus: TGFβ-activated A549 gene expression (modulation of mRNA level, RT-qPCR). It is filed as cell-based. The note with it: for IC50: Homo sapiens, A549, agent 0.1-10 μM before TGF-β (100 pM) 24 hr. Here is the method:
The selected potential candidate was also assayed in A549 alveolar epithelial cells, a commonly-used cell model for epithelial-mesenchymal transition (EMT) investigation. The agents were added at the indicated concentrations 30 min prior to the addition of TGF-β which was incubated for a further 24 hours. Then, the cellular RNA was harvested to measure the regulation of the EMT-associated genes and fibrogenic genes.
A549 alveolar epithelial cells (ATCC, Manasas, Va., USA) were cultured in DMEM containing 5% (v/v) FCS, 15 mM HEPES, 0.2% (v/v) sodium bicarbonate, 2 mM L-glutamine, 1% (v/v) non-essential amino acids, 1% (v/v) sodium pyruvate, 5 IU/mL penicillin and 50 μg/mL streptomycin as previously described (S. Salem, T. Harris, J. Mok Shiueh Lian, M. Yuen Sin Li, C. R. Keenan, M. J. Schuliga, and A. G. Stewart (2012). Transforming growth factor-p impairs glucocorticoid activity in the A549 lung adenocarcinoma cell line. Br J Pharmacol. 166: 2036-2048).
Prior to experimentation, BEAS-2B and A549 cells were incubated in serum-free DMEM containing 0.25% bovine serum albumin (BSA) and insulin-transferrin-selenium—containing supplement (Monomed A; CSL, Parkville, Melbourne, Australia). Where indicated, cells were treated with one of the series of synthesised compounds (0.3-10 μM) prior to exposure to 100 pM TGF-β1 (R&D Systems, Minneapolis, Minn.) or 300 pM bFGF (Promega, Madison, Wis.).
Total RNA was extracted from cultured cells using illustra RNAspin Mini RNA Isolation Kit (GE Healthcare). RNA extracts were reverse-transcribed into cDNA using High-Capacity RNA-to-cDNA Kit (Applied Biosystems). Real-time PCR was then performed using a QuantStudio 6 Flex Real-Time PCR System using iTaq Universal SYBR green supermix and the following thermal protocol: 50° C. (2 min), 95° C. (10 min), then 40 cycles of 95° C. (15 sec), 60° C. (1 min). The threshold cycle (CT) values determined for target genes were normalized against those obtained for 18S ribosomal RNA (18S rRNA), which was included as internal control. The generation of specific PCR products was confirmed by dissociation curve analysis.
EMT is a feature of the pathogenesis of fibrosis that is relevant to epithelial tumour metastases and fibrogenesis in organs such as heart, kidney liver and lung, and is known to contribute to idiopathic pulmonary fibrosis (IPF) as well as being thought to make a contribution to the fibrosis known to occur in asthma and COPD. […] The potencies of PF670462 and SS9-010 in modulating induction of CTGF are not statistically distinguishable. […] The potency of these two agents in regulating vimentin induction by TGF-β could not be assessed, as the concentration-response relationship for PF670462 could not be fitted. However, the effects of SS9-010 were significant at 3 μM, whereas PF670462 (3 μM) had no effect.
(In qPCR the cycle at which signal appears reflects the starting amount.)

Assay [2] deals with ovalbumin (OVA)-sensitized BALB/c mice. The assay can be described thus: Airway hyper-responsiveness to methacholine in acute ovalbumin-induced asthma model. It is filed as in vivo, mouse. The note with it: inhaled, estimated deposited dose 1 μg, day 21 to 28.
Assay [3] relates to TNF-stimulated BEAS-2B cells. Nature of the assay: TNF-α-induced IL-8 and CSF-2 (GM-CSF) mRNA and supernatant protein in BEAS-2B cells (RT-qPCR, ELISA). It is filed as cell-based. The conditions noted are these: 1-10 μM 30 min prior to TNF-α 10 ng/ml 24 h, maximal at lowest concentration. Here is the method:
The primary assay for the activity of the novel CK1δ/ε inhibitors is the modulation of gene expression in the airway epithelial cell line, the BEAS-2B cells. The assay is conducted under several conditions. Generally, TGF-β or TNF-α is used to elicit fibrogenic or inflammatory genes, respectively. The agents are added at a concentration of 10 μM, or at the indicated concentrations for a period of 30 min prior to the addition of TGF-β/TNF-α which are incubated for a further 20 hours before the addition, in some experiments of the glucocorticoid, dexamethasone (Dex, 30 nM) for the final 4 hours of the experiment, prior to harvest of cellular RNA to measure by RT-qPCR the levels of mRNA of marker genes for inflammation and fibrogenesis. The inhaled corticosteroid (ICS), budesonide is also used in some experiments. Furthermore, the supernatants are harvested at the end of the incubation periods in selected experiments to measure the levels of CSF-2 or IL-8 by ELISA as described in (Tran et al. (2005) British Journal of Pharmacology, 145, 123-131). […] The threshold cycle (CT) values determined for target genes were normalized against those obtained for 18S ribosomal RNA (18S rRNA), which was included as internal control. […] RNA was extracted and measured by RT-qPCR. Pro-inflammatory cytokines in the supernatants were measured by ELISA. […]

Setting [4] is: read-out: -Log IC50 ± SEM (modulation of mRNA level), CTGF induction (converted).
Where [5] appears, read: read-out: -Log IC50 ± SEM (modulation of mRNA level), Col 1A induction (converted).
[6] abbreviates: read-out: -Log IC50 ± SEM (modulation of mRNA level), E-Cadherin repression (converted).
Where [7] appears, read: read-out: -Log IC50 ± SEM (modulation of mRNA level), PAI-1 induction (converted).

Consider `CNc1nccc(-c2c(-c3ccc(F)cc3)ncn2C2CCCCC2)n1` [SS9-010, 4-(1-Cyclohexyl-4-(4-fluorophenyl)-1H-imidazol-5-yl)-N-methylpyrimidin-2-amine], for which the 50% inhibitory concentration (IC50) was 0.447 µM in assay [1] (setting [4]); 0.447 µM in assay [1] (setting [5]); 2.14 µM in assay [1] (setting [6]); 0.661 µM in assay [1] (setting [7]); 3.89 µM in assay [1] (read-out: -Log IC50 ± SEM (modulation of mRNA level), Vimentin induction (converted)). In addition, the “OVA-induced increase in central airway resistance (Rn) to methacholine” value in assay [2] is given as “attenuated”. Besides, the “OVA-induced increase in elastance to methacholine” value in assay [2] is “attenuated”. Also, in assay [2], the “compliance changes, OVA/SS9-010 compared to OVA alone” value was “No significant difference”. The “TNF-α-induced IL-8 expression and immunoreactive IL-8 in supernatant” value in assay [3] is on record as “active inhibitors”.
`Cl.Nc1nccc(-c2c(-c3ccc(F)cc3)ncn2C2CCCCC2)n1` [PF670462, 4-(1-Cyclohexyl-4-(4-fluorophenyl)-1H-imidazol-5-yl)pyrimidin-2-amine hydrochloride, reference compound]: the “effect on vimentin induction by TGF-β” value in assay [1] (A549, agent 3 μM) is reported as “no effect”. The IC50 was 1.45 µM in assay [1] (setting [4]), 3.8 µM in assay [1] (setting [5]), 8.32 µM in assay [1] (setting [6]) and 3.89 µM in assay [1] (setting [7]). Moreover, the “TNF-α-induced IL-8 expression and immunoreactive IL-8 in supernatant” value in assay [3] is on record as “active inhibitors”.

Usually IC50 stands for the concentration needed to halve the response being measured.
